Measurements taken from ChEMBL document CHEMBL1143564, “Structures of three classes of anticancer agents bound to the human topoisomerase I-DNA covalent complex” (J Med Chem, 2005).

Molecular target: T1, DNA topoisomerase 1 (Homo sapiens, UniProt P11387)
T1 sequence (P11387 whole entry): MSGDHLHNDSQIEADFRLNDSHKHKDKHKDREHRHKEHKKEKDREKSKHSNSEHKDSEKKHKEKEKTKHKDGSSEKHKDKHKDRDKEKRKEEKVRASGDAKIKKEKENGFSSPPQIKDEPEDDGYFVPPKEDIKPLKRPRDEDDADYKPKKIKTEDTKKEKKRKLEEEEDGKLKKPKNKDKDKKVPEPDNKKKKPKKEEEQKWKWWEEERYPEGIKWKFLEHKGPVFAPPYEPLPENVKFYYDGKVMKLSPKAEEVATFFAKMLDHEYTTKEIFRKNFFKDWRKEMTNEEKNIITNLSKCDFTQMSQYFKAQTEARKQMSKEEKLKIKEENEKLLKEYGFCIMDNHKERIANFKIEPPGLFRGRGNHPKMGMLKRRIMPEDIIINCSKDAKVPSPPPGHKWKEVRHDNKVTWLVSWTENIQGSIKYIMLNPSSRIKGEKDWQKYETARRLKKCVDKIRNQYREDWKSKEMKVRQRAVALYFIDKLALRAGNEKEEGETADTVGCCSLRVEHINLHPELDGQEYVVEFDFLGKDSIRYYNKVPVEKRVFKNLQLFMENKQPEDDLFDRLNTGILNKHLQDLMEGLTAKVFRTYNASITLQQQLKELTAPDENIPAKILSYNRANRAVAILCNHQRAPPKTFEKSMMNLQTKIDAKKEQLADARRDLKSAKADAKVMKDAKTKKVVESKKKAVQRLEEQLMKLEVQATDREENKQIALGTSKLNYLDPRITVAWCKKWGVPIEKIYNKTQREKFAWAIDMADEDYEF
Experiment: Inhibition of topoisomerase I-DNA complex in trapping assay

IC50: 30 nM
Structure (SMILES): O=C1NC(=O)c2c1c1c3ccc(O)cc3[nH]c1c1c2c2ccc(O)cc2n1C1OC(CO)C(O)C(O)C1O (stereo unspecified)
